The values below come from patent US7253191B2, “2-thio-substituted imidazole derivatives and the use thereof in the pharmaceutical industry” (Merckle GmbH, priority 2001, dated 2007).

Experiment [1] relates to TNF-α. Description: In vitro test of cytokine release: LPS-stimulated human whole blood / PBMCs, TNFα by ELISA. In kind it is cell-based. The following applies: for IC50: LPS (E.coli 026:B6) stimulation 4 hours, table does not say whole blood or PBMCs; for TNF-α, value given in %: concentration not given. How it is done:
(§1) They may be administered in one individual dose or in a plurality of doses. The activity spectrum of the compounds as inhibitors of cytokine release was examined using the test systems below, as described by C. Donat and S. Laufer in Arch. Pharm. Pharm. […] 1, 1-40, 2000.
(§2) The reaction is stopped by placing the samples on ice, adding DPBS buffer and then centrifuging at 1000*g for 15 min. The amount of IL-1β and TNFα in the plasma supernatant is then determined by ELISA.
(§3) The cells are washed twice with DPBS buffer, resuspended in macrophage SFM medium and adjusted to a cell count of 1*10^6 cells/ml.
(§4) The reaction is stopped by placing the samples on ice, adding DPBS buffer and then centrifuging at 15 880*g for 12 min. The amount of IL-1β and TNFα in the plasma supernatant is then determined by ELISA.
In general terms: In an ELISA, binding on a coated surface is turned into a signal by an enzyme label.

Experiment [2] concerns IL-1β. Description: In vitro test of cytokine release: LPS-stimulated human whole blood / PBMCs, IL-1β by ELISA. In kind it is cell-based. The following applies: for IC50: LPS (E.coli 026:B6) stimulation 4 hours, table does not say whole blood or PBMCs. How it is done:
as §1, §2, §3, §4

As a reminder, the IC50 is the concentration at which inhibition is half-maximal. Low readings indicate greater potency in that assay, high ones weaker potency in that assay. For the compound `CCCn1c(Sc2ccc([S+](C)[O-])cc2)nc(-c2ccc(F)cc2)c1-c1ccncc1` (centres unmarked) [Example 55, 4-(4-Fluorophenyl)-2-[(4-methylsulfinyl)phenyl]thio-1-n-propyl-5-(4-pyridyl)imidazole], the IC50 in experiment [1] (Table 1) came out at 6200 nM; in experiment [2] (Table 1), 720 nM.
For `CCCn1c(Sc2ccc(S(C)(=O)=O)cc2)nc(-c2ccc(F)cc2)c1-c1ccncc1` [Example 56, 4-(4-Fluorophenyl)-2-[(4-methylsulfonyl)phenyl]thio-1-n-propyl-5-(4-pyridyl)imidazole] the same measures were 19000 nM and 1500 nM.
In the case of `Fc1ccc(-c2nc(SCc3ccccc3)n(CCN3CCOCC3)c2-c2ccncc2)cc1` [Example 42, 2-Benzylthio-4-(4-fluorophenyl)-1-N-morpholinoethyl-5-(4-pyridyl)-imidazole], the IC50 in experiment [1] (Homo sapiens, Table 1) amounted to 11000 nM; in experiment [2] (Homo sapiens, Table 1), 1300 nM.
As for `CSc1nc(-c2ccc(F)cc2)c(-c2ccncc2)n1C1CC1` [Example 22, 1-Cyclopropyl-4-(4-fluorophenyl)-2-methylthio-5-(4-pyridyl)imidazole], the IC50 in experiment [1] (Homo sapiens, Table 1) is 1100 nM; in experiment [2] (Homo sapiens, Table 1), 340 nM.
As for `Fc1ccc(-c2[nH]c(=S)n(CCCN3CCOCC3)c2-c2ccncc2)cc1` [Example 14, 4-(4-Fluorophenyl)-1-(3-N-morpholinopropyl)-5-(4-pyridyl)-2-thioimidazole], the IC50 in experiment [1] (Table 1) amounted to 100000 nM; in experiment [2] (Table 1), 18000 nM.
As for `CCCn1c(SCc2ccc(Cl)cc2)nc(-c2ccc(F)cc2)c1-c1ccncc1` [Example 29, 2-(4-Chlorobenzyl)thio-4-(4-fluorophenyl)-1-n-propyl-5-(4-pyridyl)-imidazole], the IC50 in experiment [1] (Homo sapiens, Table 1) stood at 62000 nM; in experiment [2] (Homo sapiens, Table 1) it was 1300 nM.
Turning to `CCCn1c(S)nc(-c2ccncc2)c1-c1ccc(F)cc1` [Example 59], in experiment [1] (Table 1), the IC50 came out at 83000 nM. In addition, in experiment [2] (Table 1, concentration not given), the “IL-1β, value given in %” value is 16%.
With `Cn1c(SCCN2CCOCC2)nc(-c2ccc(F)cc2)c1-c1ccncc1` [Example 47], the IC50 in experiment [1] (Table 1) is 28000 nM; in experiment [2] (Table 1), 1700 nM.
Take `Cn1c(S/C=C\c2ccccc2)nc(-c2ccc(F)cc2)c1-c1ccncc1` [Example 48, 1-cis-Phenylethenylthio-4-(4-fluorophenyl)-1-methyl-5-(4-pyridyl)-imidazole]: the IC50 was determined as 22000 nM in experiment [1] (Homo sapiens, Table 1) and 1700 nM in experiment [2] (Homo sapiens, Table 1).
Take `CC(C)n1c(-c2ccncc2)c(-c2ccc(F)cc2)[nH]c1=S` [Example 4]: in experiment [1] (Table 1), the “TNF-α, value given in %” value came out at 46%. In experiment [2] (Table 1), this compound yielded an IC50 of 2200 nM.
In the case of `CS(=O)(=O)c1ccc(CSc2nc(-c3ccc(F)cc3)c(-c3ccncc3)n2-c2ccccc2)cc1` [Example 40, 4-(4-Fluorophenyl)-2-(4-methylsulfonyl)benzylthio-1-phenyl-5-(4-pyridyl)imidazole], the IC50 in experiment [1] (Table 1) was determined as 3400 nM; in experiment [2] (Table 1), 1300 nM.
As to `CCCn1c(SCc2ccc(SC)cc2)nc(-c2ccc(F)cc2)c1-c1ccncc1` [Example 31, 4-(4-Fluorophenyl)-2-(4-methylthio)benzylthio-1-n-propyl-5-(4-pyridyl)-imidazole], the “TNF-α, value given in %” value in experiment [1] (Table 1) was 35%. For the same compound, in experiment [2] (Table 1), the IC50 is 4700 nM.
In the case of `Cc1c(-c2ccc(F)cc2)nc(S)n1-c1cccnc1` [Example 58, 4-(4-Fluorophenyl)-5-methyl-1-(3-pyridyl)imidazole-2-thiol], the “TNF-α, value given in %” value in experiment [1] (Table 1) is listed as 32%. The compound also displayed an IC50 in experiment [2] (Homo sapiens, Table 1) of 28000 nM.
Take `Fc1ccc(-c2[nH]c(=S)n(Cc3ccccc3)c2-c2ccncc2)cc1` [Example 8, 1-Benzyl-4-(4-fluorophenyl)-5-(4-pyridyl)-2-thioimidazole]: the IC50 in experiment [1] (Table 1) came to 20000 nM; in experiment [2] (Table 1) it was 1000 nM.
In the case of `Fc1ccc(-c2nc(SCc3ccccc3)n(CCCN3CCOCC3)c2-c2ccncc2)cc1` [Example 43], the values for the IC50 in experiment [1] (Table 1) and in experiment [2] (Table 1) were 5400 nM and 890 nM, respectively.
Take `CCCn1c(Sc2ccccc2)nc(-c2ccc(F)cc2)c1-c1ccncc1` [Example 52, 4-(4-Fluorophenyl)-2-phenylthio-1-n-propyl-5-(4-pyridyl)imidazole]: the IC50 was determined as 14000 nM in experiment [1] (Homo sapiens, Table 1) and 1000 nM in experiment [2] (Homo sapiens, Table 1).
For `CCCn1c(SCc2ccccc2)nc(-c2ccc(F)cc2)c1-c1ccncc1` [Example 28, 2-Benzylthio-4-(4-fluorophenyl)-1-n-propyl-5-(4-pyridyl)imidazole] the same measures were 29000 nM and 650 nM.
Turning to `CCNc1cc(-c2c(-c3ccc(F)cc3)nc(SC)n2C2CC(C)(C)NC(C)(C)C2)ccn1` [Example 75], the IC50 in experiment [1] (Homo sapiens, Table 2) was found to be 2900 nM; in experiment [2] (Homo sapiens, Table 2) it was 620 nM.
Take “4-(4-Fluorophenyl)-2-(4-methylsulfonyl)benzylthio-1-N-morpholinoethyl-5-(4-pyridyl)imidazole [Example 44]”: the IC50 was found to be 12000 nM in experiment [1] (Table 1) and 1400 nM in experiment [2] (Table 1).
As for `CC1(C)CC(n2cc(-c3ccc(F)cc3)nc2SCc2ccccc2)CC(C)(C)N1` [Example 46, 2-Benzylthio-4-(4-fluorophenyl)-1-(2,2,6,6-tetramethylpiperidin-4-yl)-imidazole], the IC50 was determined as 12000 nM in experiment [1] (Homo sapiens, Table 1) and 870 nM in experiment [2] (Homo sapiens, Table 1).
In the same order, the values of `CCCn1c(SCc2ccc(C)cc2)nc(-c2ccc(F)cc2)c1-c1ccncc1` [Example 30, 4-(4-Fluorophenyl)-2-(4-methylbenzyl)thio-1-n-propyl-5-(4-pyridyl)-imidazole] are 22000 nM and 1300 nM.
For `C[S+]([O-])c1ccc(CSc2nc(-c3ccc(F)cc3)c(-c3ccncc3)n2CCN2CCOCC2)cc1` (centres unmarked) [Example 45, 4-(4-Fluorophenyl)-2-(4-methylsulfinyl)benzylthio-1-N-morpholinoethyl-5-(4-pyridyl)imidazole], the results for the IC50 in experiment [1] (Table 1) and in experiment [2] (Table 1) were 12000 nM and 2400 nM, respectively.
As for `CC1(C)CC(n2c(-c3ccncc3)c(-c3ccc(F)cc3)[nH]c2=S)CC(C)(C)N1` [Example 12, 4-(4-Fluorophenyl)-5-(4-pyridyl)-1-(2,2,6,6-tetramethylpiperidin-4-yl)-2-thioimidazole], the IC50 is 45000 nM in experiment [1] (Table 1) and 1600 nM in experiment [2] (Table 1).
As for `Fc1ccc(-c2[nH]c(=S)n(C3CCCCC3)c2-c2ccncc2)cc1` [Example 5, 1-Cyclohexyl-4-(4-fluorophenyl)-5-(4-pyridyl)-2-thioimidazole], the results for the IC50 in experiment [1] (Table 1) and in experiment [2] (Table 1) were 33000 nM and 5400 nM, respectively.
`CCCn1c(SC)nc(-c2ccc(F)cc2)c1-c1ccnc(NC(C)=O)c1` [Example 62, 4-(4-Fluorophenyl)-1-n-propyl-5-(2-acetamido-4-pyridyl)-2-methyl-thioimidazole]: the IC50 came to 490 nM in experiment [1] (Homo sapiens, Table 2) and 120 nM in experiment [2] (Homo sapiens, Table 2).
For the compound “1-Dimethylaminophenyl-4-(4-fluorophenyl)-5-(4-pyridyl)-2-thioimidazole [Example 9]”, the values for the IC50 in experiment [1] (Table 1) and in experiment [2] (Table 1) were 15000 nM and 1800 nM, respectively.
For `CSc1nc(-c2ccc(F)cc2)c(-c2ccnc(NC(C)=O)c2)n1C` [Example 61, 4-(4-Fluorophenyl)-1-methyl-5-(2-acetamido-4-pyridyl)-2-methyl-thioimidazole], the IC50 in experiment [1] (Homo sapiens, Table 2) was determined as 870 nM; in experiment [2] (Homo sapiens, Table 2) it was 70 nM.
With `CS(=O)(=O)c1ccc(CSc2nc(-c3ccc(F)cc3)c(-c3ccncc3)n2Cc2ccccc2)cc1` [Example 41, 1-Benzyl-4-(4-fluorophenyl)-2-(4-methylsulfonyl)benzylthio-5-(4-pyridyl)-imidazole], the IC50 was 1000 nM in experiment [1] (Table 1) and 360 nM in experiment [2] (Table 1).
